Laboratory results from ChEMBL document CHEMBL4311976, “Design, synthesis and biological evaluation of novel 7H-pyrrolo[2,3-d]pyrimidine derivatives as potential FAK inhibitors and anticancer agents” (Eur J Med Chem, 2019).

How the values were obtained:
Assay in all cases: cells
A549 = conditions: Homo sapiens, A549, 72 h
Description: Antiproliferative activity against human A549 cells assessed as reduction in cell viability after 72 hrs by MTT assay

HK-2 = conditions: Homo sapiens, HK-2, 72 h
Description: Cytotoxicity against human HK2 cells assessed as reduction in cell viability after 72 hrs by MTT assay

MDA-MB-231 = conditions: Homo sapiens, MDA-MB-231, 72 h
Description: Antiproliferative activity against human MDA-MB-231 cells assessed as reduction in cell viability after 72 hrs by MTT assay

Row | Compound | IC50 (A549) | IC50 (HK-2) | IC50 (MDA-MB-231)
1 | CNC(=O)c1ccc(Nc2nc(Nc3ccccc3P(C)(C)=O)c3cc[nH]c3n2)cc1 | 3.45 µM | 9.16 µM | 4.17 µM
2 | CP(C)(=O)c1ccccc1Nc1nc(Nc2ccc(C(=O)N3CCNCC3)cc2)nc2[nH]ccc12 | 9.88 µM | > 25 µM | 8.8 µM
3 | CP(C)(=O)c1ccccc1Nc1nc(Nc2ccc(C(=O)N3CCOCC3)cc2)nc2[nH]ccc12 | 9.8 µM | 8.89 µM | 14.3 µM
4 | CP(C)(=O)c1ccccc1Nc1nc(Nc2ccc(C(=O)NC3CCNCC3)cc2)nc2[nH]ccc12 | 2.93 µM | > 25 µM | 17.8 µM
5 | CNC(=O)c1ccccc1Nc1nc(Nc2ccc(N3CCOCC3)cc2OC)ncc1Cl | 1.02 µM | 8.2 µM | 4.24 µM
6 | CP(C)(=O)c1ccccc1Nc1nc(Nc2ccc(C(=O)NC3CCOCC3)cc2)nc2[nH]ccc12 | 3.72 µM | 9.75 µM | 6.53 µM
7 | COc1cc(C(=O)NC2CCNCC2)c(F)cc1Nc1nc(Nc2ccccc2P(C)(C)=O)c2cc[nH]c2n1 | 2.24 µM | > 25 µM | 11.3 µM
8 | CCNS(=O)(=O)c1ccc(Nc2nc(Nc3ccccc3P(C)(C)=O)c3cc[nH]c3n2)cc1 | 1.02 µM | 4.77 µM | 1.31 µM
9 | CP(C)(=O)c1ccccc1Nc1nc(Nc2cnn(C3CCNCC3)c2)nc2[nH]ccc12 | 14.5 µM | > 25 µM | 14.1 µM

More lines, in order of falling IC50 (A549), values ahead:

Row | IC50 (A549) | IC50 (HK-2) | IC50 (MDA-MB-231) | Compound
10 | 17.4 µM | > 25 µM | 8.18 µM | COCCn1cc(Nc2nc(Nc3ccccc3P(C)(C)=O)c3cc[nH]c3n2)cn1
11 | 7.53 µM | 4.4 µM | 3.43 µM | CP(C)(=O)c1ccccc1Nc1nc(Nc2cnn(CC(F)F)c2)nc2[nH]ccc12
12 | 7.01 µM | 14.4 µM | 5.53 µM | CP(C)(=O)c1ccccc1Nc1nc(Nc2cnn(C3CCOCC3)c2)nc2[nH]ccc12
13 | 2.48 µM | > 25 µM | 12.4 µM | CP(C)(=O)c1ccccc1Nc1nc(Nc2ccc(C(=O)N[C@H]3CCCNC3)cc2)nc2[nH]ccc12
14 | 1.61 µM | 21.9 µM | 4.17 µM | CP(C)(=O)c1ccccc1Nc1nc(Nc2ccc(C(=O)NC3CCNCC3)c(F)c2)nc2[nH]ccc12
15 | 0.53 µM | 8.33 µM | 4.35 µM | CP(C)(=O)c1ccccc1Nc1nc(Nc2ccc(N3CCNCC3)cc2)nc2[nH]ccc12
